{"source": "patent US8609718B2", "about": "“Pharmaceutical composition used in treatment of hyperproliferative skin conditions and malignant melanomas comprising pachastrissamine as active ingredient” (Catholic University Industry Academy Cooperation Foundation, priority 2009, dated 2013)", "key": {"HaCaT cell": {"test_system": "HaCaT cell", "experiment": "Phase-contrast microscope morphology analysis of surviving cells", "format": "cell-based, human", "conditions": "lithium chloride only, 300 nM; 24 hours; FIG. 2D", "protocol": "HaCaT, B16F10 and A375 cell lines were cultured in the same manner as described in Example 1. The cultured HaCaT cell line was plated onto a 60 mm plate at a concentration of 5×10^4 cells/well, and cultured in a CO2 incubator (37° C., 5%) for 24 hours. The cultured respective cells were divided into 4 groups. One group was added with only pachastrissamine (PA) at a concentration of 10 μg/ml; another group was added with lithium chloride (apoptosis inhibiting material) (at a final concentration of 300 nM) as well as pachastrissamine at a concentration of 10 μg/ml (PA+Li); and a third group was added with only lithium chloride (Li). The last group was a negative control group (Con) and was added with nothing. These groups were cultured in a CO2 incubator (37° C., 5%) for 24 hours, and then the number of cells were measured in the same manner as described in Example 2-2.\nThe four groups of HaCaT cell samples were washed with PBS, and then surviving cells were subjected to morphology analysis through a phase-contrast microscope (see FIG. 2f)."}, "GSK3-beta / beta-catenin": {"test_system": "GSK3-beta / beta-catenin", "experiment": "Western blotting of pGSK3-beta, GSK3-beta, pCatenin and Catenin in HaCaT", "format": "cell-based, human", "conditions": "pachastrissamine 10 μg/ml, LiCl 300 nM, 30 minutes, FIG. 5A", "protocol": "The pachastrissamine's effect on beta-catenin protein expression was researched. In the same manner as described in Example 1, a HaCaT cell line was cultured."}, "HaCaT cell line": {"test_system": "HaCaT cell line", "experiment": "MTT cell viability analysis (cytotoxicity), HaCaT", "format": "cell-based, human", "conditions": "0, 0.9, 1.8, 3.7, 7.5, 10 μg/ml, 24 hours, FIG. 1", "protocol": "(§1) Pachastrissamine's cytotoxicity on a HaCaT cell line and a malignant melanoma cell line was researched through MTT cell viability analysis.\n(§2) First, each of a HaCaT cell line (German Cancer Research, obtained from prof. N. Fuseni, Germany), and two kinds of malignant melanoma cell lines, B16F10 (B16) and A375 were inoculated into a DMEM (Dulbecco's Modified Eagle's Medium) culture medium added with 10% FBS (Thermo Fisher Scientific Inc.), 100 unit/ml penicillin, and 100 μg/ml streptomycin, and then cultured in a CO2 incubator (Form a Scientific, Inc.) (37° C., 5%).\n(§3) The cultured HaCaT, B16F10, and A375 cells were plated onto a 96-well plate at a concentration of 5×10^4 cells/well, and cultured in a CO2 incubator (37° C., 5%) for 24 hours. The cells in respective wells were treated with pachastrissamine and phytosphingosine at various concentrations of 0, 0.9, 1.8, 3.7, 7.5, 10 μg/ml, and cultured in a CO2 incubator (37° C., 5%) for 24 hours. After the culturing, in a state where the culture medium existed, each well was added with 5 mg/ml MTT reagent at a concentration of 20 μl/[…], and cultured in an incubator for 2 hours. After 2 hours, the culture medium was removed, and each well was added with 150 μl of DMSO (dimethyl sulfoxide). Then, a spectrophotometer was used to measure the absorbance at 540 nm, thereby analyzing the cell viability. Herein, the cell viability was represented as a relative value with respect to 100% of cell viability in a control group not treated with pachastrissamine and phytosphingosine."}, "[1]": {"test_system": "malignant melanoma cell line B16F10", "experiment": "MTT cell viability analysis (cytotoxicity), B16F10", "format": "cell-based", "conditions": "0, 0.9, 1.8, 3.7, 7.5, 10 μg/ml, 24 hours, FIG. 1", "protocol": "as §1, §2, §3"}, "[2]": {"test_system": "malignant melanoma cell line A375", "experiment": "MTT cell viability analysis (cytotoxicity), A375", "format": "cell-based", "conditions": "0, 0.9, 1.8, 3.7, 7.5, 10 μg/ml, 24 hours, FIG. 1", "protocol": "as §1, §2, §3"}, "AKT": {"test_system": "AKT", "experiment": "Western blotting of AKT phosphorylation", "format": "cell-based", "conditions": "HaCaT, B16F10, A375; 10 μg/ml pachastrissamine, 5 μg/ml phytosphingosine; 30 minutes; FIGS. 3A, 3B", "protocol": "HaCaT, B16F10 and A375 cell lines were cultured in the same manner as described in Example 1. […] 30 minutes later, and 60 minutes later, each of the cell lines was resuspended in RIPA buffer [12 mM EDTA, 137 mM NaCl, 20 mM Tris-HCl (pH 8.0), 1 mM Na3VO4 (Sigma-Aldrich, USA) 10 mM NaF (Sigma), 1 mM PMSF (Sigma), 1% Triton X-100, 10% glycerol, protease inhibiting cocktail (Roche, Germany)], and then put on ice for 30 minutes so that the cells can be completely lysed. The lysate was centrifuged at 14000 rpm for 30 minutes, and the supernatant was collected. A BCA protein analysis kit (Pierce, Rockford, Ill.) was used to determine the concentration of each sample, and the sample was subjected to electrophoresis (SDS-PAGE). Western blotting was carried out on the protein isolated by the electrophoresis. After electrophoresis of the sample, the protein was transferred to a polyvinylidene fluoride membrane (Pall Corporation). Then, after blocking the membrane at room temperature for one hour using 5% BSA solution (Amresco, USA), it was treated with primary antibodies and reaction was carried out for 12 hours at 4° C. The primary antibodies were AKT antibody and Actin antibody (Cell Signaling Technology, Beverly, Mass.), which are antibodies associated in cell proliferation-related signaling. After reaction with primary antibodies, it was washed for about 30 minutes and further reacted for 1 hour at room temperature by treating with HRP-conjugated secondary antibodies. Then, after washing sufficiently for over 30 minutes, protein was identified using an ECL detection kit (intron Biotechnology)."}, "FoxO3a": {"test_system": "FoxO3a", "experiment": "Western blotting of FoxO3a protein expression in HaCaT", "format": "cell-based, human", "conditions": "for level of protein expression of FoxO3a, single material: treated as in Example 3-2, compared to negative control, FIG. 4E", "protocol": "A HaCaT cell line was cultured in the same manner as described in Example 1. […] Then, western blotting was carried out by using FoxO3a antibody as a primary antibody.\nThen, western blotting was carried out by using FoxO3a antibody as a primary antibody so as to carry out comparative analysis on the level of protein expression."}, "p-FoxO3a (Ser 253)": {"test_system": "p-FoxO3a (Ser 253)", "experiment": "Western blotting of p-FoxO3a (Ser 253)", "format": "cell-based", "conditions": "HaCaT, A375, B16F10; 10 μg/ml; 30 minutes; FIGS. 4B, 4C", "protocol": "In the same manner as described in Example 4-1, a HaCaT cell line and malignant melanoma cell lines (A375 and B16F10) were treated with pachastrissamine and phytosphingosine at a concentration of 10 μg/ml for 30 minutes and 60 minutes, respectively. Then, western blotting was carried out using p-FoxO3a (Ser 253) antibody."}, "ERK": {"test_system": "ERK", "experiment": "Western blotting of ERK activity (pERK) in HaCaT", "format": "cell-based, human", "conditions": "pachastrissamine 10 μg/ml, U0126 20 nM, 30 minutes, FIG. 3C", "protocol": "A HaCaT cell line was cultured in the same manner as described in Example 1. […] The last group was a negative control group (−) and was added with nothing."}, "FoxO3a / beta-catenin": {"test_system": "FoxO3a / beta-catenin", "conditions": "U0126, 30 minutes, FIG. 5C", "protocol": "In a HaCaT cell line, pachastrissamine's effect on FoxO3a protein which can be degraded over-expression of beta-catenin was researched. In the same manner as described in Example 1, the HaCaT cell line was cultured. The cultured cells were transfected with beta-catenin so as to induce over-expression of beta-catenin. The cultured cells were plated onto a 6-well plate at a concentration of 3×10^5 cells/well and cultured for 24 hours. After the culturing, after about 12 hours of serum starvation, cells with over-expression of beta-catenin and other cells with transfection of vector were treated with U0126 (ERK inhibitor), and reacted for 30 minutes."}}, "data": [{"compound": "[Cl-].[Li+]", "note": "[lithium chloride, reference compound]", "values": [{"measurement": "cell division extent", "setting": "HaCaT cell", "result": "increased"}, {"measurement": "phosphorylation of GSK3-beta", "setting": "GSK3-beta / beta-catenin", "result": "GSK3-beta was phosphorylated"}, {"measurement": "phosphorylation of beta-catenin", "setting": "GSK3-beta / beta-catenin", "result": "inhibited the phosphorylation of beta-catenin"}]}, {"compound": "CCCCCCCCCCCCCC[C@@H](O)[C@@H](O)[C@@H](N)CO", "note": "[phytosphingosine, reference compound]", "values": [{"measurement": "cell viability (number of surviving cells) with increasing concentration", "setting": "HaCaT cell line", "result": "the number of surviving cells was reduced"}, {"measurement": "cell viability (number of surviving cells) with increasing concentration", "setting": "[1]", "result": "the number of surviving cells was reduced"}, {"measurement": "cell viability (number of surviving cells) with increasing concentration", "setting": "[2]", "result": "the number of surviving cells was reduced"}, {"measurement": "phosphorylation of AKT after 30 minutes", "setting": "AKT", "result": "reduction of phosphorylation of AKT"}, {"measurement": "protein expression level of FoxO3a compared to control group", "setting": "FoxO3a; 5 and 10 μg/ml, 24 hours, FIG. 4A", "result": "increased"}, {"measurement": "amount of expressed p-FoxO3a after 30 minutes", "setting": "p-FoxO3a (Ser 253)", "result": "reduced"}]}, {"compound": "COc1cccc(-c2cc(=O)c3ccccc3o2)c1N", "note": "[PD98059, reference compound]", "values": [{"measurement": "level of protein expression of FoxO3a, single material", "setting": "FoxO3a", "result": "significantly increased"}]}, {"compound": "N#CC(=C(/N)Sc1ccccc1N)/C(C#N)=C(\\N)Sc1ccccc1N", "note": "[U0126, reference compound]", "values": [{"measurement": "ERK activation (phosphorylation of ERK)", "setting": "ERK", "result": "almost completely inhibited the phosphorylation of ERK"}, {"measurement": "level of protein expression of FoxO3a, single material", "setting": "FoxO3a", "result": "significantly increased"}, {"measurement": "expression level of FoxO3a protein reduced by over-expression of beta-catenin", "setting": "FoxO3a / beta-catenin; HaCaT transfected with beta-catenin", "result": "restored"}, {"measurement": "protein expression level of beta-catenin", "setting": "FoxO3a / beta-catenin; HaCaT with or without over-expression of beta-catenin", "result": "no effect"}]}]}
